Assay results: article PMC5460925, “Degradation Paradigm of the Gut Hormone, Pancreatic Polypeptide, by Hepatic and Renal Peptidases” (Endocrinology, 2017)

What was measured:
[1] = in vivo; design: species or system mouse; settings: for level at time molar at 1.5 h: male, C57BL/6, mouse, plasma level of PP at 90 minutes
Protocol: The mice were divided into four treatment groups according to body weight. A protocol similar to that used for the phosphoramidon feeding study was used, with an IP injection, followed by a SC injection 15 minutes later (maximum volume, 50 µL for each injection) of phosphoramidon (0, 7, 20, and 60 mg/kg IP), followed by PP (150 nmol/kg SC in saline; n = 4 to 6; […]). […] Additional mice (n = 2) underwent overnight fasting and were culled at 0 minutes after injection of the control substances (saline SC and vehicle IP) for measurement of the baseline levels of circulating PP. The blood was immediately removed via cardiac puncture and centrifuged at 6000 rpm (Sigma 3K18; 12348 rotor; Sigma-Aldrich) for 10 minutes. The plasma was stored at −20°C until analysis. The plasma samples were assayed using an established in-house PP RIA ([8]). The anti-PP antibody was elevated in rabbit against human PP and recognized PP (and other truncated forms) but not in other PP-fold peptides or gastrointestinal peptides. ^125I-PP was prepared using the iodogen method and purified using HPLC. The assay was performed in duplicate in a total volume of 700 µL of 0.06 M phosphate buffer (pH 7.35) containing 0.3% bovine serum albumin. The samples were incubated for 3 days at 4°C before separation of free and antibody-bound ^125I-PP using dextran-coated charcoal. The sensitivity was ≤5 fmol/tube. The intra-assay coefficient of variation was 6%.

[2] = target: T1, mouse Y4 receptor (Mus musculus, UniProt Q61041); test: Y4 receptor binding assay (125I-PP competition); settings: membranes of HEK293 cells overexpressing mouse Y4 receptor; competition with 125I-PP (100 pM); 90 min, 4°C; mean ± SEM of three to five separate experiments; read-out: IC50 (half maximal inhibitory concentration), Y4 receptor binding affinity
T1 construct: expressed in transfected cells; host or cells: HEK293
T1 sequence (Q61041 whole entry): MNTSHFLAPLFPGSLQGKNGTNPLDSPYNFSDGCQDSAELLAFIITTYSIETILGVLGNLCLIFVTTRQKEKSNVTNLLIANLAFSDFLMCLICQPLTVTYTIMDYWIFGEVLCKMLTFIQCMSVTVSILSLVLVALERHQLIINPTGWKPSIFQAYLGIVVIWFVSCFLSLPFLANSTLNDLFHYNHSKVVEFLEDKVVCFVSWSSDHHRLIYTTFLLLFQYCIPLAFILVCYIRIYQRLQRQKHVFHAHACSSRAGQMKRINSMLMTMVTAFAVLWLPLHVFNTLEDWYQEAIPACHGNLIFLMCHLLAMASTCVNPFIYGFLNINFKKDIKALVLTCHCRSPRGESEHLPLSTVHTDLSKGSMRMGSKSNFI
Protocol: Transfected HEK293 cells overexpressing the mouse Y4 receptor were prepared and binding assays performed as previously described ([29]). Isolated cell membranes (protein concentration, 1 to 2 µg/mL) were incubated for 90 minutes in siliconized polypropylene tubes together with ^125I-PP [1 kBq (100 pM)] and a dose response of unlabeled competing peptides at 4°C in binding buffer [20 mM HEPES (pH 7.4), 1 mM MgCl2, 5 mM CaCl2, 0.1% bovine serum albumin, and protease inhibitors (0.2 mM phenylmethylsulfonyl fluoride, 0.1 mM Diprotin A, and 10 µM phosphoramidon ( all from Sigma-Aldrich)] in a final assay volume of 0.5 mL. PP was iodinated as previously described ([8]) using ^125I from GE Healthcare Life Sciences (Amersham, UK). Pelleted membranes were washed with 5 mL ice-cold assay buffer, and the membranes were centrifuged at 15,874g for 3 minutes at 4°C, as described, to separate bound and free label. Bound radioactivity was measured using a γ-counter (NE 1600; NE Technology Ltd, Reading, UK). Specific binding was calculated as the difference between the amount of ^125I-PP bound in the absence (total binding) and presence of 5 μM unlabeled competing peptide (nonsaturable binding). All curves were performed with points in triplicate. Half maximal inhibitory concentration values were calculated using Prism, version 5.01 (GraphPad Software Inc., San Diego, CA) using a three-parameter logistic equation for the nonlinear regression fit: Y = bottom + (top − bottom)/1 + 10^(LogEC50 − X), where EC50 is the half maximal effective concentration.

[3] = test system: food intake in C57/BL6 mice; test: Acute feeding studies (food intake) in overnight-fasted mice; format: in vivo, mouse
Protocol: All animal procedures were approved by the British Home Office, under the United Kingdom Animal (Scientific Procedures) Act 1986 (project license, 70/6402). Adult male C57/BL6 mice (Harlan, Wyton, UK) weighing 20 to 25 g were maintained in individual cages under controlled temperature (21°C to 23°C) and light (12-hour light/dark cycle, with lights on at 7:00 AM). The mice had ad libitum access to water and normal chow RM1 (Special Diet Services, Devon, UK), unless stated otherwise. For acclimatization, the mice were regularly handled and given 2 sham subcutaneous (SC) and/or intraperitoneal (IP) injections of saline. Before each feeding study, the mice were fasted overnight, and the injections were performed during the early light phase (8:00 to 10:00 AM). The mice were stratified by body weight. To investigate the anorectic effects of DPPIV-resistant analogs, the mice were stratified into treatment groups and administered a SC injection (maximum volume, 100 µL) of vehicle, PP, PP3-36, PP2-36, or PP-Ala0 (n = […]). Food intake was measured at 1, 2, 4, and 8 hours after injection to compare the peptides with short half-lives (PP and its endogenous degradation product, PP3-36) and, in a separate experiment, at 24 hours after injection for peptides with modifications (PP-Ala0 and PP2-36, using PP as the comparator). A PP analog with global modifications for enzyme resistance (PP-x) was also investigated and administered as a SC injection (maximum volume, 100 µL) at a high and low dose (n = 9). Food intake was measured at 1, 2, 4, and 8 hours after injection. […] This dose of phosphoramidon was sufficient to inhibit NEP activity ([30]). Food intake was measured at 1, 2, 4, 8, 24, and 48 hours after injection.

[4] = human, in vivo; cited from earlier work
Protocol: Administration of PP to humans is not associated with adverse side effects such as nausea, unlike GLP-1 analogs and, as such, is potentially a useful agent for the regulation of food intake and the treatment of obesity. PP is a relatively small peptide (4.2 kDa) and is therefore susceptible to a number of degradative enzymes and other eliminating mechanisms. PP consequently has a short circulating half-life of approximately 7 minutes in humans ([6]). This short half-life limits the use of native PP as a practical obesity treatment. To the best of our knowledge, the mechanisms for the degradati ...

- level at time molar at 1.5 h ([1]; sc, 150 nmol/kg, PP alone): 1.92 ± 0.134 nM
- level at time molar at 1.5 h ([1]; sc, with phosphoramidon 7 mg/kg): 5.46 ± 0.807 nM
- level at time molar at 1.5 h ([1]; sc, with phosphoramidon 20 mg/kg): 5.3 ± 0.461 nM
- level at time molar at 1.5 h ([1]; sc, with phosphoramidon 60 mg/kg): 5.53 ± 0.348 nM
- plasma levels of PP at 45 minutes, alone vs combined with any dose of phosphoramidon ([1]; mouse): did not differ significantly
- decrease of plasma level (peptide cleared) between 45 and 90 minutes after injection ([1]; mouse, sc): ~80%
- level at time molar at 0.5 h ([1]; mouse, sc, 100 nmol/kg, plasma peptide level at 30 minutes after injection): 8.74 ± 0.744 nM
- level at time molar at 2 h ([1]; mouse, sc, 100 nmol/kg, plasma peptide level at 120 minutes after injection): 2.11 ± 0.224 nM
- IC50 [2]: 0.26 ± 0.04 nM
SMILES: CC[C@H](C)[C@H](NC(=O)[C@H](Cc1ccc(O)cc1)NC(=O)[C@H](CCCNC(=N)N)NC(=O)[C@H](CCCNC(=N)N)NC(=O)[C@H](CC(C)C)NC(=O)[C@H](CC(=O)O)NC(=O)[C@H](C)NC(=O)[C@H](C)NC(=O)[C@H](Cc1ccc(O)cc1)NC(=O)[C@H](CCC(N)=O)NC(=O)[C@H](C)NC(=O)[C@H](CCSC)NC(=O)[C@H](CCC(N)=O)NC(=O)[C@H](CCC(=O)O)NC(=O)[C@@H]1CCCN1C(=O)[C@@H](NC(=O)[C@H](C)NC(=O)[C@H](CC(N)=O)NC(=O)[C@H](CC(=O)O)NC(=O)CNC(=O)[C@@H]1CCCN1C(=O)[C@H](Cc1ccc(O)cc1)NC(=O)[C@@H](NC(=O)[C@@H]1CCCN1C(=O)[C@H](CCC(=O)O)NC(=O)[C@H](CC(C)C)NC(=O)[C@@H]1CCCN1C(=O)[C@H](C)N)C(C)C)[C@@H](C)O)C(=O)N[C@@H](CC(N)=O)C(=O)N[C@@H](CCSC)C(=O)N[C@@H](CC(C)C)C(=O)N[C@H](C(=O)N[C@@H](CCCNC(=N)N)C(=O)N1CCC[C@H]1C(=O)N[C@@H](CCCNC(=N)N)C(=O)N[C@@H](Cc1ccc(O)cc1)C(N)=O)[C@@H](C)O [PP, Pancreatic polypeptide]
- cumulative food intake at 8 hours (0- to 8-hour interval), low dose ([3]; 25 nmol/kg SC, overnight-fasted C57BL/6 mice, n = 9, mean ± SEM): 2.36 ± 0.18 g
- inhibition of food intake over 24 hours vs saline ([3]; 150 nmol/kg SC, overnight-fasted C57/BL6 mice, 0 to 24 hours, n = 7): did not
- cumulative food intake 0 to 8 hours ([3]; 150 nmol/kg SC, overnight-fasted C57/BL6 mice, n = 7, mean ± SEM): 0.93 ± 0.10 g
- cumulative food intake at 48 hours, PP alone ([3]; PP 150 nmol/kg SC after vehicle IP, phosphoramidon study, fasted mice, mean ± SEM): 6.52 ± 0.14 g
- food intake at 4 hours, PP alone ([3]; PP 150 nmol/kg SC, sitagliptin study, fasted mice, mean ± SEM): 0.91 ± 0.04 g
- circulating half-life [4]: approximately 7 minutes
